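Tested at 5 concentrations; 48 h exposure; 96-well plates; endpoints linearly interpolated, else capped at highest concentration. GI50 is the concentration that inhibits growth by half. Definition used: TGI = concentration required for complete inhibition of growth.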
Legend:
Experiment in all cases: NCI tumour cell line growth inhibition, 48 h
SW-620 colon = tested on: SW-620 colon
NCI-H460 lung = tested on: NCI-H460 lung
SNB-75 CNS = tested on: SNB-75 CNS
UO-31 renal = tested on: UO-31 renal
NCI-H23 lung = tested on: NCI-H23 lung
SK-MEL-28 melanoma = tested on: SK-MEL-28 melanoma
A549 NSCLC = tested on: A549 NSCLC
SNB-19 CNS = tested on: SNB-19 CNS
NCI/ADR-RES ovarian = tested on: NCI/ADR-RES ovarian
TK-10 renal = tested on: TK-10 renal

Row | Structure (SMILES) | TGI (SW-620 colon) [µM] | TGI (NCI-H460 lung) [µM] | TGI (SNB-75 CNS) [µM] | TGI (UO-31 renal) [µM] | TGI (NCI-H23 lung) [µM] | TGI (SK-MEL-28 melanoma) [µM] | TGI (A549 NSCLC) [µM] | GI50 (SW-620 colon) [µM] | GI50 (NCI-H460 lung) [µM] | GI50 (SNB-19 CNS) [µM] | TGI (SNB-19 CNS) [µM] | GI50 (NCI/ADR-RES ovarian) [µM] | TGI (NCI/ADR-RES ovarian) [µM] | GI50 (SNB-75 CNS) [µM] | GI50 (UO-31 renal) [µM] | GI50 (NCI-H23 lung) [µM] | GI50 (SK-MEL-28 melanoma) [µM] | GI50 (A549 NSCLC) [µM] | TGI (TK-10 renal) [µM] | GI50 (TK-10 renal) [µM]
1 | Cc1ccc(C2[C@H]3C(=O)N(c4ccc(Cc5ccc(N6C(=O)[C@@H]7ON(c8ccccc8)C(c8ccc(C)cc8)[C@@H]7C6=O)cc5)cc4)C(=O)[C@H]3ON2c2ccccc2)cc1 (stereo not given in full) | > 100 | > 100 | > 100 | > 100 | > 100 | > 100 | > 100 |  |  |  |  |  |  |  |  |  |  |  |  | 
2 | CC(=O)CCc1ccc(Oc2c3c(nc4ccccc24)OCC3)cc1 | > 100 | > 100 | 61.7 | > 100 | > 100 | > 100 | > 100 | > 100 | 29.4 | > 100 | > 100 | 29.5 | > 100 | 14.3 | 54.4 | 35.3 | 44.9 | 11.7 |  | 
3 | CCCCCN(CCCCC)C(=O)[C@H](CCC(=O)O)NC(=O)c1cc2ccccc2[nH]1 | > 100 | > 100 | 98.4 | > 100 | 85.8 | 96.4 | > 100 |  |  |  | > 100 |  |  |  |  |  |  |  | > 100 | 
4 | N#CC(C(=N/O)/C(=N\O)C(C#N)c1ccccc1)c1ccccc1 (stereo not given) | > 100 | > 100 | > 100 | > 100 | > 100 | > 100 | > 100 |  |  |  | > 100 |  |  |  |  |  |  |  | > 100 | 
5 | O=C1C(Cl)=C(Cl)C(=O)N1c1cccc(C(F)(F)F)c1 | > 100 | > 100 | > 100 | > 100 | > 100 | > 100 | > 100 |  |  |  | > 100 |  |  |  |  |  |  |  | > 100 | 
6 | O=[N+]([O-])c1ccc(C2SCc3nc4ccccc4n32)cc1 (stereo not given) | > 100 | > 100 |  | > 100 | > 100 | > 100 | > 100 |  |  |  | > 100 |  |  |  |  |  |  |  | > 100 | 
7 | CCC[CH2][Sn]([CH2]CCC)([O]C(=O)c1cc(F)ccc1F)[O]C(=O)c1cc(F)ccc1F | 1.91 | 3.56 | 2.49 | 2.79 | 2.02 | 2.32 | 21 | 0.619 | 1.85 | 1.56 | 2.9 |  |  | 1.13 | 1.47 | 0.731 | 1.09 | 7.72 | 3.01 | 1.64
8 | COc1cc2c3c(n([C@@H]4CCOC4)c(=O)c2cc1OC)-c1cc2c(cc1C3=O)OCO2 | > 100 |  |  | > 100 |  |  | > 100 | < 0.01 |  | < 0.01 | > 100 | < 0.01 | > 100 |  | < 0.01 |  |  | 0.0107 | > 100 | > 100
9 | Cc1ccc(C)c(NC(=O)C(=O)C2C(=O)N(c3ccccc3)N=C2N)c1 (stereo not given) | > 100 | > 100 | > 100 | > 100 | > 100 | > 100 | > 100 |  |  |  | > 100 |  |  |  |  |  |  |  | > 100 | 
10 | O=C1NC2C3CC(OCc4ccccc4)(OCc4ccccc4)C2OC3O1 (stereo not given) | > 50 |  | > 50 | > 50 | > 50 | > 50 | > 50 |  |  |  |  |  |  |  |  |  |  |  |  | 
11 | O=C(O)/C(Cl)=C(Cl)/C=N/NC(=O)c1cc2ccccc2cc1O | > 100 | > 100 | > 100 | 6.36 | 41.2 | > 100 | > 100 |  |  |  | > 100 |  |  |  |  |  |  |  | > 100 | 
12 | Cc1ccnc2c(NC(C)CCCN)cc(O)c(O)c12 (stereo not given) | 78.7 | > 100 | 81.1 | > 100 | 27.3 | > 100 | 75 | 19.6 | 27.4 |  |  | 16.3 | > 100 | 19 | 61.9 | 3.98 | 62.5 | 20.7 | > 100 | 47.7
13 | Cc1cc(Cl)ccc1N=C1NC(=O)C(CC(=O)Nc2cccc(C)c2C)S1 (stereo not given) | > 100 | > 100 | 48.8 | 51.5 | 52.1 | > 100 | 96.3 |  |  |  | 68.3 |  |  |  |  |  |  |  | > 100 | 
14 | COC(=O)c1ccc(C(=O)OC)c2nc3cc(Cl)ccc3nc12 | > 100 | > 100 | > 100 | > 100 | > 100 | > 100 | > 100 |  |  |  | > 100 |  |  |  |  |  |  |  | > 100 | 
15 | O=c1cc(-c2ccccc2)oc2cc(OCCCCCN3CCOCC3)cc(O)c12 | > 100 | > 100 | 15.2 | > 100 |  | > 100 | > 100 | > 100 | 90.1 | 23.9 | 71.6 | 72 | > 100 | 3.64 | 32.7 |  | > 100 | > 100 | > 100 | 51.4
16 | Cn1c2c(c3ccccc3c1=O)C(=O)c1ccccc1-2 | > 100 |  | > 100 | > 100 | > 100 | > 100 | > 100 |  |  |  | > 100 |  | > 100 |  |  |  |  |  | > 100 | 
17 | O=C(COC(=O)c1cccc2c(=O)c3ccccc3[nH]c12)Nc1ccc(Cl)cc1 | > 100 | > 100 | 78.6 | > 100 | 64.2 | > 100 | > 100 |  |  |  | > 100 |  |  |  |  |  |  |  | 46.5 | 
18 | CCOC(=O)/C(C#N)=C\Sc1ccccc1 | 72.6 | 83.1 | 53.9 | 24.1 | > 100 | 42.8 | > 100 |  |  |  | > 100 |  |  |  |  |  |  |  | > 100 | 

Reference: PubChem BioAssay (NCI)
